Data set [1] in a line: Side effects after subcutaneous injection of peptide into the flank. The format is in vivo, mice. The procedure:
To test further potential side effects of the peptide in vivo, 3 mice were injected subcutaneously into the flank with 9 doses of peptide to a total amount of 0.68 mg per mouse over 3 weeks. Then the skin at injection site, liver, kidney, spleen, and weight were checked for abnormal changes (Supplementary Figure 1, liver and kidney).

Data set [2] relates to normal human dermal fibroblasts NHDF. As to the kind of experiment: MTS cell viability assay, NHDF. The format is cell-based. As to conditions: 24 h, at least three experiments. The text has this:
The human malignant melanoma cell line A375 was purchased from ATCC (American Type Culture Collection, Manassas, Virginia, US) and cultured in Dulbecco's Modified Eagle Medium with GlutaMAX™ (DMEM, Gibco®, Thermo Fisher Scientific, USA) with addition of 10% FBS (Gibco®). Melanoma cell lines from primary (SBcl-2) and metastatic (WM164) lesions (kindly provided by Dr. Meenhard Herlyn, the Wistar Institute, Philadelphia, PA) and newly established primary cells MUG-Mel1 (manuscript Rinner et al., in preparation) were maintained in RPMI 1640 medium with GlutaMAX™ (Gibco®, Thermo Fisher Scientific, USA) supplemented with 2% FBS (fetal bovine serum; Gibco®). Normal human dermal fibroblasts NHDF, used as healthy control cells, purchased from PromoCell GmbH were cultured in fibroblast growth medium 2 (PromoCell GmbH). All cells were kept in a 5% CO2 atmosphere at 37°C. […]
MTS viability assay-spectroscopy—Cell proliferation was measured by using CellTiter 96® Aqueous One Solution Cell Proliferation assay (Promega). […] The quantity of the formazan product as measured by the amount of 490 nm absorbance is directly proportional to the number of living cells in culture. Data are calculated as a percentage of the control (untreated) samples and represent the average of three wells in one experiment which was repeated three times per cell line.

The nature of data set [3]: Peptide stability in presence of fetal bovine serum (SDS-PAGE). As to conditions: FBS 1:1 weight ratio, 37°C. The format is in vitro ADME. On the procedure: (§1) Peptide stability was tested in presence of bovine serum albumin (BSA, Sigma-Aldrich, Deisenhofen, Germany), fetal bovine serum (FBS, Gibco®), buffer pH 2 (30 mM citric acid/HCl, 60 mM NaCl), pH 10 (10 mM Tris/NaOH), and pepsin from porcine gastric mucosa (Sigma-Aldrich, Deisenhofen, Germany) in buffer pH 2. […] After the given time points aliquots were taken and diluted with electrophoresis loading buffer (2.5% SDS) heated for 5 minutes at 95°C and analyzed by SDS-gel electrophoreses (BioRad, Mini-PROTEAN Tetra System). As standard the Ultra-low Range Molecular Weight Marker M3546 (Sigma-Aldrich, Deisenhofen, Germany) was used. For analysis of binding to BSA after 7 days respective samples were taken and loaded on Amicon Ultra-0.5 ml Centrifugal Filters (Ultracel-10K) (Merck Millipore, Tullagreen, IRL). After centrifugation (14.000g, 30 minutes, 4°C) the filtrate was analyzed for amount of non-BSA-bound peptide by measurement of UV-absorbance of tryptophan at 280 nm. The filtrate (free) peptide amount was corrected with the peptide loss during the filtration process by a control experiment with defined peptide amount.

In data set [4] the target is T1, bovine serum albumin (BSA) (Bos taurus, UniProt P02769).
T1 construct: purchased Sigma-Aldrich, Deisenhofen, Germany
As to the kind of experiment: Peptide stability in presence of BSA (SDS-PAGE). The format is in vitro ADME. The following applies: BSA 1:1 weight ratio, 37°C, 1, 6 and 7 days. The procedure:
(§2) Peptide stability was tested in presence of bovine serum albumin (BSA, Sigma-Aldrich, Deisenhofen, Germany), fetal bovine serum (FBS, Gibco®), buffer pH 2 (30 mM citric acid/HCl, 60 mM NaCl), pH 10 (10 mM Tris/NaOH), and pepsin from porcine gastric mucosa (Sigma-Aldrich, Deisenhofen, Germany) in buffer pH 2. Therefore peptide samples were incubated in presence of 1:1 weight ratios (10:1 in presence of pepsin) with the mentioned components or in presence of buffer (pH 2 or 10) for 1 day, 6 days and 7 days at 37°C. After the given time points aliquots were taken and diluted with electrophoresis loading buffer (2.5% SDS) heated for 5 minutes at 95°C and analyzed by SDS-gel electrophoreses (BioRad, Mini-PROTEAN Tetra System). As standard the Ultra-low Range Molecular Weight Marker M3546 (Sigma-Aldrich, Deisenhofen, Germany) was used. For analysis of binding to BSA after 7 days respective samples were taken and loaded on Amicon Ultra-0.5 ml Centrifugal Filters (Ultracel-10K) (Merck Millipore, Tullagreen, IRL). After centrifugation (14.000g, 30 minutes, 4°C) the filtrate was analyzed for amount of non-BSA-bound peptide by measurement of UV-absorbance of tryptophan at 280 nm. The filtrate (free) peptide amount was corrected with the peptide loss during the filtration process by a control experiment with defined peptide amount.

Data set [5] relates to human melanoma A375 xenografts. As to the kind of experiment: Mouse xenografts of human melanoma A375, intratumoral peptide treatment. The format is in vivo, FOXN1 mice. As to conditions: day 1 and day 3, after first and second dose of 0.33 mg. On the procedure:
20 FOXN1 mice (Charles River Laboratories, Sulzfeld, Germany) were xenotransplanted with melanoma cells A375 subcutaneously in the right flank. The tumor was grown to a maximum length and width of 3 mm before peptide treatment was started (day 0). 9 mice were treated with peptide dissolved in buffer PBS (P), 5 mice were treated with pure buffer (C+), 5 mice were untreated (C-). Treatment occurred at days 0, 1, 6, 7, 8, 11 and 12 in 7 single doses by injection into the tumor. The total dose per mouse was 1.67 mg. The single doses applied at day 0 and 1 contained 0.33 mg peptide and the residual doses contained 0.20 mg. The tumor sizes were measured with manual calipers during the treatment time span. […]
The tumor sections of peptide treated and untreated mice were evaluated for the following: tumor cell types (spindle, epithelioid, or mixed), tumor size, present/ absent necrosis or fibrosis. […] We performed Ki67 staining (Ki-67 rabbit primary antibody, 30-9; ready to use with Ventana iView DAB detection kit; Pretreatment: CC1mild; All Ventana Medical Systems, Inc, Tucson, Arizona).
All values were presented as the mean ± SEM. In vivo data were analyzed by using the unpaired student's t test, p-values less than 0.001 were considered statistically significant.
(In general: A xenograft is tissue or cells of one species grown in another, often human tumour cells in immunodeficient mice.)

For data set [6], the target named is T2, pepsin from porcine gastric mucosa (Sus scrofa, UniProt P00791).
T2 construct: pepsin from porcine gastric mucosa (Sigma-Aldrich, Deisenhofen, Germany); purchased Sigma-Aldrich, Deisenhofen, Germany; host or cells: porcine gastric mucosa
The experiment in a line: Peptide stability in presence of pepsin at pH 2 (SDS-PAGE). The class given is in vitro ADME. The following applies: pepsin in buffer pH 2, peptide:pepsin 10:1 weight ratio, 37°C, 1, 2 and 7 days. The procedure:
as §1

For data set [7], the target named is T1, bovine serum albumin (BSA). The experiment in a line: Binding to BSA (centrifugal filtration, UV 280 nm). The following applies: after 7 days of incubation at 37°C, Amicon Ultracel-10K filtration, corrected for filtration loss. The procedure: as §2
A short description of data set [8]: Complete blood count of xenografted mice. The class given is in vivo, FOXN1 mice. The following applies: 7 mice. On the procedure: 20 FOXN1 mice (Charles River Laboratories, Sulzfeld, Germany) were xenotransplanted with melanoma cells A375 subcutaneously in the right flank. The tumor was grown to a maximum length and width of 3 mm before peptide treatment was started (day 0). […] Treatment occurred at days 0, 1, 6, 7, 8, 11 and 12 in 7 single doses by injection into the tumor. The total dose per mouse was 1.67 mg. The single doses applied at day 0 and 1 contained 0.33 mg peptide and the residual doses contained 0.20 mg. The tumor sizes were measured with manual calipers during the treatment time span. At day 15 the mice were sacrificed and the tumors were isolated and examined together with the organs of the mice after paraffin embedment and staining of four-micron sections with hematoxylin and eosin. All animal work was done in accordance with the protocol approved by the institutional animal care and use committee at the Austrian Federal Ministry for Science and Research (BMWF) (vote 66.010/0160-II/3b/2012).

For data set [9], the system named is malignant melanoma. The following applies: cited from earlier work; for response rates: malignant melanoma patients, ref [26], [27]. An excerpt: Though, the specific target PS has been described to be exposed by numerous cancer types, we decided to focus on treatment of a cancer type with poor prognosis and limited therapy options, like malignant melanoma. […] In 1960s the risk to develop malignant melanoma was 1:600, whereas today it is 1:75 to 1:100 [23]. Further it exerts high tendency to metastasize and is mainly chemo-resistant. Thus the long-standing applied treatment with the methylating agent dacarbazine or its oral analogue temozolomide only yie ...

The mark [10] stands for this setting: 3 mice, 9 s.c. doses, total 0.68 mg per mouse over 3 weeks.
[11] abbreviates: vemurafenib compared to dacarbazine, ref [30].

Where two headings read alike, the source gives them in different places. Residues, ends and D or L forms follow the SMILES beside them. A value given as a limit tells only on which side of the number the result lay.

T1 sequence (P02769 25-607): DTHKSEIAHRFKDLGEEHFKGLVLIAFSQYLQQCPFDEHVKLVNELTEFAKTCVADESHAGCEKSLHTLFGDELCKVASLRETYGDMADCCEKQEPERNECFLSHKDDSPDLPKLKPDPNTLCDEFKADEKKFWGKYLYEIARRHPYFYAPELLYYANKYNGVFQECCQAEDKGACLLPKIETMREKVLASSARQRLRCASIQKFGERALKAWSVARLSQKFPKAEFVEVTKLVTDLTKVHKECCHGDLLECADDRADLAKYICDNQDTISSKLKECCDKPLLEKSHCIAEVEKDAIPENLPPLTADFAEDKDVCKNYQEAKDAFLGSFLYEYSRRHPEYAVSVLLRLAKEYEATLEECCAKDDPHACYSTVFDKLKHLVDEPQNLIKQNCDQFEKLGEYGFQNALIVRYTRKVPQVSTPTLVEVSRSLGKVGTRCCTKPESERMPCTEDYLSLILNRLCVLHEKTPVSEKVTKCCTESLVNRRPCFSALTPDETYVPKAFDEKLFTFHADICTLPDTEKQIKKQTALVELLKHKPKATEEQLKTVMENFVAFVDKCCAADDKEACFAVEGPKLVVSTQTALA
T2 sequence (P00791 60-385): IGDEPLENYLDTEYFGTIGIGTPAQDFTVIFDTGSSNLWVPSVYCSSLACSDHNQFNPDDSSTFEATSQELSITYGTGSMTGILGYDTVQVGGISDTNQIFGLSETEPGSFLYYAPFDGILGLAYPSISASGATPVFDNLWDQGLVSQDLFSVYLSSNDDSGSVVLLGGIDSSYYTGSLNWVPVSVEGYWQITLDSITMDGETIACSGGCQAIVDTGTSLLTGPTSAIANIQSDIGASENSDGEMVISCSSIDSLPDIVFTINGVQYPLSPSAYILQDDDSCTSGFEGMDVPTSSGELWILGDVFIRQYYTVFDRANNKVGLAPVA

Regarding `CC[C@H](C)[C@H](NC(=O)[C@H](CCCNC(=N)N)NC(=O)[C@@H](NC(=O)[C@H](CCCNC(=N)N)NC(=O)[C@H](CCCNC(=N)N)NC(=O)[C@@H]1CCCN1C(=O)[C@H](CCCNC(=N)N)NC(=O)[C@H](CCCNC(=N)N)NC(=O)[C@@H](NC(=O)[C@H](CCCNC(=N)N)NC(=O)[C@@H](NC(=O)[C@H](CCCNC(=N)N)NC(=O)[C@H](Cc1c[nH]c2ccccc12)NC(=O)[C@@H]1CCCN1)[C@@H](C)CC)[C@@H](C)CC)[C@@H](C)CC)C(=O)N[C@@H](CCCNC(=N)N)C(=O)N[C@@H](Cc1c[nH]c2ccccc12)C(=O)N1CCC[C@H]1C(N)=O` [R-DIM-P-LF11-334] (H-PWRIRIRRPRRIRIRWP-NH2), in data set [1] (setting [10]), the “inflammation after subcutaneous injection” value was “No inflammation occurred”; the “organs (skin at injection site, liver, kidney, spleen)” value was “unsuspicious”; the weight gain result is listed as “normal”. Moreover, the “effect in liver and kidney (H&E sections)” value in data set [1] (s.c. treatment, 9 doses, Supplementary Figure 1) is “No effect”. Also, the “LC50 MTS” value in data set [2] was over 90 µM. For the same compound, in data set [3], the “incubation time in FBS before amount of peptide is reduced” value is reported as “more than 1 day”, the “peptide remaining in FBS after 6 days” value is recorded as “no peptide was detectable” and the “period of stability / complete activity in presence of FBS (blood components)” value came to 24 h. Further, the “fraction of peptide left in FBS after 2 days” value in data set [3] (data not shown) is “about 1/3”. For the same compound, the “degradation of peptide by BSA” value in data set [4] is listed as “no degrading effect”. Besides, the “local reaction at tumor after intratumoral injection” value in data set [5] is reported as “in some cases a wound developed”. Also, the “cleavage in presence of pepsin” value in data set [6] is on record as “no visible cleavage”. Further, the “binding of the peptide to BSA” value in data set [7] was “approximately 75%”. In [8] (+P), this compound gave a Bas of 0.68%, an EVB-CV of 19.44%, an EVB-SD of 35.95 fL and an MERY of 0.34%. In data set [8] (+P), the MTHR was determined as 8.13%, the Medn worked out at 4.14 fL, the Mod was 3.05 fL and the “Other (leukocytes)” value is on record as 2.30%. In data set [8] (+P), this compound showed a TKT of 0.43%, a μERY of 16.00% and a μTHR of 16.54%. Moreover, in data set [8] (+P, normal range 1-5), the Mon is given as 4.46%. The compound further registered an MPV in data set [8] (+P, normal range 3-8) of 5.91 fL. Also, the TVB in data set [8] (+P, normal range 6-10) came out at 10.10. For the same compound, in data set [8] (+P, normal range 6-11), the “Erythrocytes ERY” value is reported as 8.53 10^6/μl. The compound further came in with an MCH in data set [8] (+P, normal range 13-22) of 16.5 pg. Also, the Hb in [8] (+P, normal range 14-18) was 14.06 g/dL. Moreover, in [8] (+P, normal range 24-40), the MCHC stood at 32.85 g/dL. Moreover, the Hct in data set [8] (+P, normal range 35-45) amounted to 42.81%. Also, the MCV in [8] (+P, normal range 35-50) worked out at 50.18 fL. In data set [8] (+P, normal range 70-81, marked ↑), this compound came in with a Lym of 82.28%. Further, in data set [8] (+P, normal range 100-600, marked ↑), the “Thrombocytes THR” value was 705.00 10^3/μl. The compound further came in with an Eos in data set [8] (+P, normal range <10) of 1.33%. For the same compound, the “Leukocytes LEU” value in data set [8] (peptide treated xenograft mice (+P), normal range 4-10) is given as 6.13 10^3/μl.
Take `CN(C)/N=N/c1[nH]cnc1C(N)=O` [dacarbazine]: in [9], the response rates entry is given as “about 15%”. In data set [9] (ref [29]), the “percentage of 5 years survival, solely dacarbazine” value is 8%. The median survival in data set [9] (setting [11]) was 9.7 months.
Turning to `Cn1nnc2c(C(N)=O)ncn2c1=O` [temozolomide], the response rates entry in [9] is listed as “about 15%”.
Consider `CCCS(=O)(=O)Nc1ccc(F)c(C(=O)c2c[nH]c3ncc(-c4ccc(Cl)cc4)cc23)c1F` [vemurafenib], for which the median survival in [9] (setting [11]) is given as 13.6 months.
Turning to “ipilimumab: immunotherapy approved by the FDA in 2011, blocks the T-cell inhibition of CTLA-4”, the median survival in data set [9] (melanoma patients, ref [28]) is on record as 12.7 months. For the same compound, in data set [9] (patients treated with ipilimumab in combination with dacarbazine, ref [29]), the “percentage of 5 years survival, in combination with dacarbazine” value is 18%.

The values are drawn from publication PMC5641092 (Oncotarget, 2017).
